The source of these data is US9757405B2, “Compositions comprising rutin useful for the treatment of tumors resistant to chemotherapy” (PROBIOTICAL S.P.A., priority 2013, dated 2017).

Data set [1] is described as follows: Cell viability of non-tumor healthy fibroblasts HMF. The conditions noted are these: human. From the text: (§1) The activity of the association of rutin with synthetic chemotherapeutics (cyclophosphamide) and of the association of rutin with arctigenin, arctiin, berberine, berbamine, sanguinarine, chelerythrine (referred to with the term “extracts” in the tables), was studied on resistant cell lines of adenocarcinomas and carcinomas compared with chemosensitive tumor cell lines and with line cells.
(§2) In particular, chemoresistant human tumor cells MDA-MB-231 (breast adenocarcinoma), ECV-304 (bladder carcinoma), HuH-7 (hepatocellular carcinoma) and HTB-43 (squamous cell carcinoma of the pharynx), chemosensitive tumor cells MCF-7 (breast adenocarcinoma) and non-tumor healthy human mammal fibroblasts (HMF) have been used.

Data set [2] concerns MDA-MB-231 (breast adenocarcinoma) cells. Briefly: Cell viability of chemoresistant MDA-MB-231 cells. Type of data set: cell-based, human. The conditions noted are these: alone or in association with cyclophosphamide.
From the text: as §1, §2

One may read the viability as the share of living cells, or the viability signal relative to a control. Low readings indicate a greater loss of cells, high ones better survival. In data set [1], `O=P1(N(CCCl)CCCl)NCCCO1` (stereo not shown) [Cyclophosphamide, cyclophosphamide] gave a viability at 850 ng/ml of 54%, a viability at 1000 ng/ml of 48% and a viability at 1300 ng/ml of 42%.

As to `O=c1c(O)c(-c2ccc(O)c(O)c2)oc2cc(O)cc(O)c12` [Quercetin, quercetin], the “Synergic effect in association with cyclophosphamide” value in data set [2] is on record as “absence of synergic effects”.
